Results from US5302586A, “Phosphonomethyl-imidazo[1,2-a]pyrimidine-2-carboxylic acid compounds for treatment of neurotoxic injury” (G. D. Searle & Co., priority 1992, dated 1994).
Values belong to the compound of their own block, whether it stands above or below them.

Key:
[1] = test system: NMDA receptor site (NMDA-specific L-[^3 H]glutamate recognition site); assay: NMDA-Selective Glutamate Binding Assay (L-[^3 H]glutamate, synaptic plasma membranes); parameters: species or system rat
Protocol: Synaptic plasma membranes (SPM) were prepared as previously described [Monohan, J. B. and Michel, J., "Identification and Characterization of an N-methyl-D-aspartate-specific L[^3 H]glutamate Recognition Site in Synaptic Plasma Membranes, J. Neurochem., 48, 1699-1708 (1987)]. The SPM were stored at a concentration of 10-15 mg/ml in 0.32M sucrose, 0.5 mM EDTA, 1 mM MgSO4, 5 mM Tris/SO4, pH 7.4, under liquid nitrogen. The identity and purity of the subcellular fractions were confirmed by both electron microscopy and marker enzymes. Protein concentrations were determined by using a modification of the method of Lowry [Ohnishi, S. T. and Barr, J. K., "A Simplified Method of Quantitating Proteins Using the Biuret and Phenol Reagents", Anal. Biochem., 86, 193-197 (1978)]. The SPM were treated identically for the [^3 H]AMPA (QUIS), [^3 H]kainate and sodium-dependent L-[^3 H]-glumatate binding assays. […] Beckman MP scintillation cocktail containing 7 mL/1 acetic acid was then added and the samples counted on a Beckman LS 5800 or 3801 liquid scintillation counter with automatic corrections for quenching and counting efficiency. […] Radioligand binding to the synaptic plasma membranes was analyzed using Scatchard and Hill transformations and the Ki values of the compounds determined using logit-log transformations. […]

NMDA = conditions: CPP binding to rat brain hippocampal tissue, Murphy et al 1987; cited from earlier work
[2] = molecular target: [^3 H]MK-801 binding, rat SPM (NMDA receptor); assay: [^3 H]MK-801 Binding assay (Triton X-100 treated rat synaptic plasma membranes); conditions: 5.0 nM [^3 H]MK-801, L-glutamate 10.0 nM, 25° C., 30 min, pH 7.4
Protocol: Modulation of [^3 H]MK-801 binding was performed using Triton X-100 (0.04% v/v) treated rat SPM that had been extensively washed. Assay incubations were at 25° C. for 30 min. and contained 5.0 nM [^3 H]MK-801, L-glutamate (10.0 nM), and various concentrations of the tested compound of the invention in 50 mM Tris/acetate, pH 7.4. The assay was stopped by rapid filtration, using Brandel MB-48 Harvester, through Whatman GF/B filters treated with 0.05% polyethylenimine and the samples washed four times with 2.0 mL cold buffer. The radioactivity associated with the filter was determined by liquid scintillation spectrometry. Nonspecific binding was defined using 60 μM MK-801. IC50 were determined using a logit-log transformation of the binding data.

[^3 H]GLU % inhibition ([1]; @ 10 μM): 14%
Compound: O=C(O)c1cn2ccc(CP(=O)(O)O)nc2n1 [Example 2, 7-phosphonomethyl-imidazo[1,2-a]pyrimidine-2-carboxylic acid]

Compound: O=C(O)C1CN(CCCP(=O)(O)O)CCN1 (stereo not shown) [CPP, 3-(2-carboxypiperazin-4-yl)propyl-1-phosphonic acid]
NMDA antagonist potency and selectivity (NMDA): potent and selective NMDA antagonist

Ki ([1]; [^3 H]GLU, Triton X-100 treated SPM, 50 mM Tris/acetate pH 7.4, 0°-4° C., 10 min): 8.8 µM
Ki [2]: 4.6 µM
Compound: O=C(O)c1cn2c(CP(=O)(O)O)ccnc2n1 [Example 1, 5-Phosphonomethyl-imidazo[1,2-a]pyrimidine-2-carboxylic acid]
